The record followed here is US20260327216A1, “SUBSTITUTED OXAZOLONE COMPOUND FOR DECREASING LEVELS OF IKZF I-4 PROTEINS” (BRISTOL-MYERS SQUIBB COMPANY, priority 2023, published 2026).

Assay [1] addresses T1, IKZF3 Aiolos (Homo sapiens, UniProt Q96SW2+Q9UKT9). Put plainly: Jurkat Cellular Degradation Assay, IKZF3. Also noted: endogenous in cells. The conditions noted are these: Jurkat cells, 72 h; for Dmax: human, 100% = complete degradation, 0% = no detectable degradation, read-out: IKZF3 Aiolos max % deg. observed. It is filed as cell-based. Here is the method: Jurkat cells were plated at 80,000 cells/well in 40 μL RPMI+10% FBS in a 384-well cell culture plate prior to using acoustic dispensing technology for adding a compound of interest. Cell cultures were incubated for 72 h at 37° C. and 5% CO2. In order to facilitate analysis, cell cultures were spun down at 200 rpm for 5 min and the supernatant was discarded. After shaking the plate to dislodge the cell pellet, cells were resuspended in 50 μL of Fixation Buffer (eBioscience FoxP3 buffer set 00-5523-00) for 60 min at room temperature. After centrifuging and discarding the supernatant, cells were permeabilized with 50 μL of Permeabilization buffer (eBioscience FoxP3 buffer set 00-5523-00) for 10 min at room temperature. Following permeabilization, cells were spun down and the supernatant was replaced with 20 μL fluorescently labelled antibodies against Helios, Ikaros and Aiolos or corresponding Isotype controls in 1× Permeabilization buffer (Ikaros-Alexa488 [Biolegend, Cat #368408, 1:50], Helios-PE [CST, Cat #29360, 1:50], Aiolos-Alexa647 [Biolegend, Cat #371106 Biolegend, 1:25]) and staining reactions were incubated for 1 h at room temperature while protected from light. Subsequently, 30 μL of 1× Permeabilization buffer was added prior to centrifuging the cells and discarding the supernatant. Stained cells were resuspended in 25 μL of flow cytometry staining buffer [PBS+0.2% bovine serum albumin (BSA)] and analyzed using an Intellicyt Ique Plus flow cytometer.
Table A-1 lists the maximum observed degradation of the IKZF1 protein, IKZF2 protein, and IKZF3 protein as measured in the Jurkat Cellular Degradation assay. The results in Table A-1 were rounded to two digits. In the Jurkat Cellular Degradation assay, a value of 100% indicated no detectable protein remaining or complete degradation of the protein; and a value of 0% indicated no detectable degradation of the protein by the test compound.

The target in assay [2] is T1, IKZF3 Aiolos. Description: Human CD8^+ T Cell Reprogramming Assay, IKZF3. The conditions noted are these: human PBMC, CD8+ T cells, 24 hours; for IKZF3 Aiolos Maximum Observed Degradation / Dmax: 100% = complete degradation; for Dmax: read-out: IKZF3 Aiolos Maximum Observed Degradation. In kind it is cell-based. Further details: Cryopreserved healthy donor human peripheral blood mononuclear cells (PBMC); endogenous in cells; host or cells: human PBMC from healthy donors (CD8+ T cells by flow cytometry). Here is the method: Cryopreserved healthy donor human peripheral blood mononuclear cells (PBMC) from healthy donors were thawed and seeded at 500,000 cells/well of 96-well round bottom plates in RPMI 1640 media (Gibco) supplemented with 10% FBS, Pen/Strep (Gibco), MEM-NEAA (Gibco), and sodium pyruvate (Gibco). Cells were treated with titrated doses of compound for 24 hours at 37° C., 5% CO2 before analyzing by flow cytometry.
For flow cytometry staining, cells were washed twice with flow cytometry staining buffer (Thermo Fisher) and incubated in Human Tru-stain Fc block (Biolegend) for 10 minutes before adding eFluor780 viability dye (Thermo Fisher) and surface marker antibody cocktail containing LD-eFluor780, CD3-BUV-395, CD4-BUV805, CD8-FITC, and CD25-BV605 for 30 minutes at 4° C. Cells were then fixed and permeabilized by incubation with permeabilization buffer (eBioscience FoxP3 buffer set 00-5523-00) for 30 minutes at 4° C. as per the kit manufacturer's instructions. Cells were washed twice with the Perm/Wash buffer supplied in the kit as per the manufacturer's instructions and incubated overnight at 4° C. with an intracellular antibody cocktail comprised of antibodies specific for the transcription factors (i.e., Foxp3-BV421, HELIOS-PE-Cy7, EOS-PE, IKAROS-PECF594, AIOLOS-AF647). Cells were washed twice with Perm/Wash buffer and resuspended in flow cytometry staining buffer (Thermo Fisher) prior to acquisition. Sample acquisition and analysis was performed using a BD LSRFortessa (BD Biosciences) flow cytometer. Single-stain controls for each fluorochrome were prepared using UltraComp eBead Compensation Beads (Thermo Fisher). Data were analyzed using FlowJo version 10 and GraphPad Prism Software.
Table D-1 lists the maximum observed degradation of the IKZF1 protein and IKZF3 protein as measured in the Human CD8^+ T Cell Reprogramming assay. The results in Table D-1 were rounded to two digits. In the Human CD8^+ T Cell Reprogramming assay, a value of 100% indicated no detectable protein remaining or complete degradation of the protein; and a value of 0% indicated no detectable degradation of the protein by the test compound.

[3] abbreviates: concentration reducing protein level by 50% vs DMSO.

T1 sequence (Q9UKT9 whole entry): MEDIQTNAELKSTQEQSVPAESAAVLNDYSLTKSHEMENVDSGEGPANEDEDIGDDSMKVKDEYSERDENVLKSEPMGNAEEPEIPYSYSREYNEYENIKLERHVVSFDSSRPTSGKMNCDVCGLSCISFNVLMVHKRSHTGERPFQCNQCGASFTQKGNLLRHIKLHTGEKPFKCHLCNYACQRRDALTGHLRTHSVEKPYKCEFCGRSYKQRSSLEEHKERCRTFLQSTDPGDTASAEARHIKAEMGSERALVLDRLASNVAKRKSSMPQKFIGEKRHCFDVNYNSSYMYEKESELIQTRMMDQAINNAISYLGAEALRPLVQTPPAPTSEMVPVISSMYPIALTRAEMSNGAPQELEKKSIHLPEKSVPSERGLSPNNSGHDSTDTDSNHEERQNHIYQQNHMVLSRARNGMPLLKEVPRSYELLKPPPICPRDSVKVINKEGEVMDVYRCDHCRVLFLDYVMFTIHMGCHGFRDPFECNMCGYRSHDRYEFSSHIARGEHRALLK
T1 sequence (Q96SW2 whole entry): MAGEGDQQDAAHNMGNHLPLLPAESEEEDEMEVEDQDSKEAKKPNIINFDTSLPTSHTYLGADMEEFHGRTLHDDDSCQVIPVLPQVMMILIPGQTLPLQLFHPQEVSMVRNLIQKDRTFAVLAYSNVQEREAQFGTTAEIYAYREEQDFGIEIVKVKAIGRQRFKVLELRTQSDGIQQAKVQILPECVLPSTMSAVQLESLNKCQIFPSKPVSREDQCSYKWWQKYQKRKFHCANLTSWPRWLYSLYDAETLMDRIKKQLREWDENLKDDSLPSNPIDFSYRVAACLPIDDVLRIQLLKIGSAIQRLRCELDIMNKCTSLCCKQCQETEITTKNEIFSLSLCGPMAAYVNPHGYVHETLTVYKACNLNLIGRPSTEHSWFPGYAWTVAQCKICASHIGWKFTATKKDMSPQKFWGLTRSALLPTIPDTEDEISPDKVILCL
T1 sequence (Q16531 whole entry partner): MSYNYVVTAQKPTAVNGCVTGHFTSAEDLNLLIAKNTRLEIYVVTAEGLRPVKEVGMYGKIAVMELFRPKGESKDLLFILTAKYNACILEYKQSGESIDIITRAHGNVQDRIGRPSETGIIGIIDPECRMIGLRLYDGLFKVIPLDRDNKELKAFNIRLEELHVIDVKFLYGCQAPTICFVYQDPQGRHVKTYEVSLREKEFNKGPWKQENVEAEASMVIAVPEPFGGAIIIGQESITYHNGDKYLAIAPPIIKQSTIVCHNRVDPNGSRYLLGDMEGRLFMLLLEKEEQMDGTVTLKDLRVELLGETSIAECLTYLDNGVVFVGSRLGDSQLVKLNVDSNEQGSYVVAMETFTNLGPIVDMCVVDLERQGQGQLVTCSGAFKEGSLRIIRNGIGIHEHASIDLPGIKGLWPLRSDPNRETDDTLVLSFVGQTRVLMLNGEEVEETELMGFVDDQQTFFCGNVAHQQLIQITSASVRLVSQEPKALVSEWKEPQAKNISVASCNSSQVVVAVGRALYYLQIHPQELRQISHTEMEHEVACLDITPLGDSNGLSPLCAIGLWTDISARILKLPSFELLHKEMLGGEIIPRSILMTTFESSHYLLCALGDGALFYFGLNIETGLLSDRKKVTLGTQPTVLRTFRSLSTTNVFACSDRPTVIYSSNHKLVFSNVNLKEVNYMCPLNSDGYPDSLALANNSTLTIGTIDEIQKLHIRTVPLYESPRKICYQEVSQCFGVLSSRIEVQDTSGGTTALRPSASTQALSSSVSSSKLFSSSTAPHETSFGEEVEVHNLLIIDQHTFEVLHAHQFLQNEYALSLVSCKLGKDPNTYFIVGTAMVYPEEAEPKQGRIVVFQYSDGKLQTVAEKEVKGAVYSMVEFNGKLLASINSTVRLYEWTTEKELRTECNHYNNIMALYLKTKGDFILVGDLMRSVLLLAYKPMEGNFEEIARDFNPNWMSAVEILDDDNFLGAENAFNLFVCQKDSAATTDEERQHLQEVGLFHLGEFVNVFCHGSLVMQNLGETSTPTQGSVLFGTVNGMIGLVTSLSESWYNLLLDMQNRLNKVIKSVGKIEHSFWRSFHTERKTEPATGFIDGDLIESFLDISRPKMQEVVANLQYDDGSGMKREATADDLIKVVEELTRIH

Take `O=C1CCC(n2cc(-c3ccccc3)oc2=O)C(=O)N1` (stereo not shown) [Comparative Compound A, 3-(2-oxo-5-phenyloxazol-3(2H)-yl)piperidine-2,6-dione]: the Dmax on IKZF3 Aiolos [1] amounted to 46%. Further, on IKZF3 Aiolos [2], the “IKZF3 Aiolos Maximum Observed Degradation” value is recorded as 80% and the Dmax was determined as 80%.
Consider `Cc1cc(-c2ccc(-c3cn(C4CCC(=O)NC4=O)c(=O)o3)c(F)c2)nc(N)c1OC(F)F` (stereo not shown) [Example 1, 3-(5-(4-(6-Amino-5-(difluoromethoxy)-4-methylpyridin-2-yl)-2-fluorophenyl)-2-oxooxazol-3(2H)-yl)piperidine-2,6-dione], for which the DC50 on IKZF3 Aiolos [1] (setting [3]) is 9.01 µM; on IKZF3 Aiolos [2] (setting [3]), 0.022 to 0.025 µM. In addition, the Dmax at IKZF3 Aiolos [1] is 52%; at IKZF3 Aiolos [2], 69 to 74%. In addition, at IKZF3 Aiolos [2] (1440 min), the “IKZF3 Aiolos Maximum Observed Degradation” value is 69-74%.
Consider `O=C1CCC(n2cc(-c3ccc(Br)cc3F)oc2=O)C(=O)N1` (stereo not shown) [Comparative Compound B, 3-(5-(4-bromo-2-fluorophenyl)-2-oxooxazol-3(2H)-yl)piperidine-2,6-dione], for which the Dmax on IKZF3 Aiolos [1] was determined as 15%; at IKZF3 Aiolos [2], 0%.
